Results published in US9840712B2, “CD133 aptamers for detection of cancer stem cells” (DEAKIN UNIVERSITY, priority 2012, dated 2017).
Where two headings read alike, the source gives them in different places. In the oligonucleotide strings, read from the 5' end, every base follows the letter of its sugar. An asterisk marks phosphorothioate; unmarked linkages are phosphodiester. Other units and linkages are bracketed, terminal groups are in braces. A string of capitals states the bases alone. r = 2'-OH (RNA); f = 2'-fluoro

What was measured:
[1] = system: colon cancer cells (HT29); settings: 1 μM; for Tumoursphere formation after treatment: 3 days post-treatment
[2] = target: T1, CD133 expressed on HT-29 cells (Homo sapiens, UniProt O43490); assay: Aptamer dissociation constant by flow cytometry, HT-29 cells; settings: HT-29 cells (CD133-positive); binding at 37° C. for 30 min
T1 construct: determined using CD133 positive (HT-29 and Hep3B) and CD133 negative cell lines (T98G and HEK293T); host or cells: HT-29
T1 sequence (O43490 20-865): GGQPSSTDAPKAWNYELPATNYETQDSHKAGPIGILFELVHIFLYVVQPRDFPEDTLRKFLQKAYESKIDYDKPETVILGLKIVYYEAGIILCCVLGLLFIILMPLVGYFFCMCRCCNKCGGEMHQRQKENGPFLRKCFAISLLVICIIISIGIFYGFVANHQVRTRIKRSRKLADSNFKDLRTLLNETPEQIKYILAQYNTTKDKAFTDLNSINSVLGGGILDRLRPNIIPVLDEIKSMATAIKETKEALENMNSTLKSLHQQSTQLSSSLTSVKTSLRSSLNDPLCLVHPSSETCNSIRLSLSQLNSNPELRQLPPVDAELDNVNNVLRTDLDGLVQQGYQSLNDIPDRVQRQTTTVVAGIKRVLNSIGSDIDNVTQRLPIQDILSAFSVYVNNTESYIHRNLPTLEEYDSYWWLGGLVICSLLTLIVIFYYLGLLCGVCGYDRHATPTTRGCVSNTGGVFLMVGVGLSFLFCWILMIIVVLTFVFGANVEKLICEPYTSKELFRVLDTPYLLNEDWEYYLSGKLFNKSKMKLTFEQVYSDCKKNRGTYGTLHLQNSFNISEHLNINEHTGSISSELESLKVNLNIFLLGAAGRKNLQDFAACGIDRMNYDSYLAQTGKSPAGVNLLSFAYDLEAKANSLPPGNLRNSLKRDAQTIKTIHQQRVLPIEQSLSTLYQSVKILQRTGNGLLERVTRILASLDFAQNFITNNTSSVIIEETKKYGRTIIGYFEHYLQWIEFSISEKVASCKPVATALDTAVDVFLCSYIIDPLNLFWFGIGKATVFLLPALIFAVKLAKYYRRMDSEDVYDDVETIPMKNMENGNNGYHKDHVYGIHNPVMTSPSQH
Protocol: (§1) Cells were harvested at 80% confluence with trypsin digestion and resuspended in washing buffer (DPBS with 2.5 mM MgCl2) and enumerated. Following centrifugation (1000×g for 5 min), the cell pellet was resuspended in binding buffer (DPBS supplemented with 5 mM MgCl2, 0.1 mg/ml tRNA, 0.1 mg/ml salmon sperm DNA) and diluted to 1×10^6/mL.
(§2) The dissociation constant (Kd) of successful 2′-fluoropyrimidine RNA aptamer species to native CD133 expressed on the cell surface was determined using flow cytometry. […] The mean fluorescence intensity (MFI) of the unselected library was subtracted from that of the aptamer-target cell to generate the MFI of specific binding. The Kd for each aptamer was determined by Scatchard analysis according to the equation: [Bound aptamer]/[aptamer]=−(1/Kd)×[bound aptamer]+([T]tot/Kd) where [T]tot represents the total target concentration. […]
(§3) To generate the truncated aptamers, the sense and antisense DNA oligonucleotides of desired sequences were synthesised. […] The binding affinities of these two aptamers and a negative control aptamer was determined using CD133 positive (HT-29 and Hep3B) and CD133 negative cell lines (T98G and HEK293T). […]

[3] = target: T2, CD133 expressed on Hep3B cells (Homo sapiens, UniProt O43490); assay: Aptamer dissociation constant by flow cytometry, Hep3B cells; settings: Hep3B cells (CD133-positive); binding at 37° C. for 30 min
T2 construct: determined using CD133 positive (HT-29 and Hep3B) and CD133 negative cell lines (T98G and HEK293T); host or cells: Hep3B
T2 sequence (O43490 20-865): T1 sequence (O43490 20-865)
Protocol: as §1, §2, §3

[4] = system: CD133-negative HEK293T cells; assay: Aptamer dissociation constant by flow cytometry, HEK293T cells (specificity); parameters: species or system human; settings: binding at 37° C. for 30 min
Protocol: as §1, §2, §3

[5] = system: CD133-negative T98G cells; assay: Aptamer dissociation constant by flow cytometry, T98G cells (specificity); parameters: species or system human; settings: binding at 37° C. for 30 min
Protocol: as §1, §2, §3

Compound | Tumoursphere formation after treatment ([1]; 10 cells/well) | Tumoursphere formation after treatment ([1]; 50 cells/well) | inhibition of tumoursphere formation (in words) ([1]; 100 cells/well) | Tumoursphere formation after treatment ([1]; 100 cells/well) | Kd [2] | Kd [3] | Kd [4] | Kd [5]
COc1cccc2c1C(=O)c1c(O)c3c(c(O)c1C2=O)C[C@@](O)(C(=O)CO)C[C@@H]3O[C@H]1C[C@H](N)[C@H](O)[C@H](C)O1 [Doxorubicin, doxorubicin] | 5/5 | 5/5 | no effect | 5/5 | – | – | – | –
CD133-1-2-2: 15 mer 2′-F-pyrimidine RNA aptamer, 5′-CC CUC CUA CAU AGG G-3′ (SEQ ID NO:1) (fCfCfCfUfCfCfUrAfCrAfUrArGrGrG; further chemistry not given here) | – | – | – | – | 0.082 µM | 0.032 µM | 120 µM | 275 µM
CD133-2-1: 19 mer 2′-F-pyrimidine RNA aptamer, 5′-CAGAACGUAUACUAUUCUG-3′ (SEQ ID NO:6) (fCrArGrArAfCrGfUrAfUrAfCfUrAfUfUfCfUrG; further chemistry not given here) | – | – | – | – | 0.145 µM | 0.052 µM | 1740 µM | 4.76 µM
